From patent US12564634B2, “Highly dispersible zinc phthalocyanine-silica nanotubes and preparation method therefor” (priority 2019, dated 2026)

Test: Dispersion stability analysis with LUMiSizer (transmittance profile under centrifugation)
Type: physicochemical
Conditions: aqueous dispersion, 10 min ultrasonication, 5 s intervals, total 55 s, steeper slope = lower dispersion stability, Test Group I value matches the sample stored one day after dispersing
Experimental: In this experimental example, the dispersion stability of highly dispersible zinc phthalocyanine-silica nanotubes was tested. The dispersion stability analysis was performed with the use of LUMiSizer™.
In this regard, the dispersion stability refers to the stability of a dispersed material, and the longer the dispersion state is maintained after being dispersed, the higher the dispersion stability. As a measurement method, there is a method of directly observing the change in dispersion stability of the sample. In this regard, to shorten the observation time, there is a method of letting the sample to experience harsh conditions such as centrifugal force or heating so that the change in dispersion stability of the sample can be checked in a quick time (refer to “Procedures to accelerate the evaluation of long-term stability”, ISO/TR 13097). For example, the sample may undergo centrifugation so that relatively quick sedimentation of particles can occur compared to gravity sedimentation. In this case, layer separation occurs. […] A detector detects the IR rays having transmitted through the sample, and the detected rays are represented in real time as a transmittance profile. It is a method of performing comparative analysis of dispersion stability between samples by quantifying the generation rate, pattern, etc. of such a profile. […]

increase slope of the average value of the transmittance profile (rate in %/s): 17.70 %/s
SMILES: [Zn+2].c1ccc2c(c1)-c1nc-2nc2[n-]c(nc3nc([n-]c4nc(n1)-c1ccccc1-4)-c1ccccc1-3)c1ccccc21 [Control Group, zinc phthalocyanine]
